Article PMC8869097, “Benzothiazole Derivatives as Multifunctional Antioxidant Agents for Skin Damage: Structure–Activity Relationship of a Scaffold Bearing a Five-Membered Ring System” (Antioxidants, 2022)
In brackets after ≈: the same amount, converted by molar mass.

Experiments:
HeLa cells = assay: Antiproliferative activity; assay type: cell-based; conditions: Homo sapiens
Description: (§1) Human cervical carcinoma (HeLa) and human CD4+T-lymphoblast (CEM) cells were obtained from ATCC (Middlesex, UK). Human pancreatic carcinoma (Mia-Paca 2) cells were kindly provided by Prof. Anna Karlsson (Karolinska Institute, Stockholm, Sweden). All cell lines were grown in Dulbecco’s modified Eagle’s medium (DMEM; Gibco, Carlsbad, CA, USA), supplemented with 10% fetal bovine serum (FBS, Gibso), 0.01M Hepes (Gibco) and 1 mM sodium pyruvate (Gibco) in a humidified 5% CO2 incubator at 37 °C.
(§2) The cell suspensions of CEM, HeLa and Mia-Paca2 were treated with increasing concentrations of the selected compounds, following the protocol previously reported.
(§3) A stock solution of the compounds (20 mM in DMSO) was prepared and stored at −18 °C. Then, the compounds were diluted in the cell culture medium and tested starting with the 100 µM concentration as the upper limit. The application of equation (6) allowed to obtain the values of IC50. C1 − [50 − N1%/N2% − N1%] − (C1 − C2),(6) where C1 is the concentration of the compound which inhibits cell proliferation by more than 50%; C2 is the concentration of the compound which inhibits cell proliferation below 50%; N1% represents the number of cells (expressed as a percentage of control without compound) obtained in the presence of C1 and N2% represents the number of cells (as a percentage of control without compound) obtained in the presence of C2.
(§4) Finally, the compounds of this series of benzothiazole derivatives were tested to evaluate their antiproliferative activity in vitro against human T-cell leukemia cell line (CEM), human cervical carcinoma cells (HeLa), human pancreas cancer cells (Mia Paca-2) and human melanoma cells (SK-Mel 5). Non-cancerous HEK293T cells (Normal Kidney Epithelial Cells) were chosen as a control for cytotoxicity and/or selectivity. The results obtained have been summarized in Table 5 (data shown only for the active compounds) and are expressed as IC50 values in μM. The selectivity index (SI) was also reported, determined by comparing the values of IC50 (μM) obtained on healthy cells (HEK 293) with that obtained on tumor cells (CEM, HeLa, Mia-Paca-2 and SK- Mel 5) (Table 5).

CEM cells = assay: Antiproliferative activity; assay type: cell-based; conditions: Homo sapiens, CCRF-CEM
Description: as §1, §2, §3, §4

Mia-Paca2 cells = assay: Antiproliferative activity; assay type: cell-based; conditions: Homo sapiens, MIA PaCa-2
Description: as §1, §2, §3, §4

[1] = test system: Candida albicans (ATCC 10231); assay: Anti-Candida albicans activity, broth microdilution MIC; assay type: cell-based; conditions: for MIC: Candida albicans, ATCC10231, 24 h of incubation; for activity against Candida albicans: after 24 h
Description: The dermatophytes used in this study were Epidermophyton floccosum var. floccosum (Netherlands) CBS 358.93 strain, Trichophyton tonsurans (Netherlands) CBS 483.76 strain, Trichophyton mentagrophytes (Netherlands) CBS 160.66 strain, Microsporum canis (Iran) CBS 131,110 strain, and Microsporum gypseum (Iran) CBS 130,948 strain. All dermatophytes were maintained at 4 °C as agar slants on SDA. Candida albicans (ATCC 10231) was maintained at 4 °C on SDA plate.
The suspension of Candida albicans consists of the dispersion of an aliquot in 5 mL of sterilized water. The compounds and fluconazole, used as a positive control, were solubilized in DMSO (12.80 mg/mL) as stock solutions. Minimum inhibitory concentration (MIC) was performed by the broth microdilution method according to the approved standard M27-A3, 2008 [NCCLS] of the Clinical and Laboratory Standards Institute/National Committee for Clinical Laboratory Standards (CLSI/NCCLS), as described previously.
Candida is a strain of fungi known to transmit infections to different parts of the human body, including the skin [43], which is why the synthesized compounds have also been tested against Candida Albicans (ATCC 10231). For each of them the minimum inhibitory concentration (MIC) was determined by the broth microdilution method using RPMI 1640 + MOPS as culture medium. […] Fluconazole was used as a positive control drug. […] Similarly to the results observed on dermatophytes, therefore, the unsubstituted compounds in position 6 of benzimidazole gave activity on yeasts, except for compound 8a.

dermatophytes [2] = assay: Antidermatophyte activity, all tested dermatophytes together; assay type: cell-based; conditions: read-out: percentages of inhibition of growth, all five dermatophytes
Description: The in vitro antifungal activity against the five selected dermatophytes was evaluated, as previously described, using the plaque growth inhibition method. All compounds were evaluated at the final concentration of 100 µg/mL. The percentages of growth inhibition according to Equation (5) were calculated as the average of three different experiments. I = [(C − T)/C] × 100%,(5) where I is the percentage value of growth inhibition, C is the measure of the diameter of the control circular mycelial inoculum (mm) and T is the extended diameter of the treated mycelial inoculum (mm).
All synthesized benzothiazole derivatives were evaluated to evaluate their in vitro antifungal activity against the five pathogenic dermatophytes that cause the most common dermatomycoses: Microsporum gypseum, Microsporum canis, Trichophyton mentagrophytes, Trichophyton tonsurans and Epidermophyton floccosum. All compounds were tested at a concentration of 100 µg/mL in DMSO, to evaluate the ability to inhibit the growth of dermatophyte cultures in Sabouraud Dextrose Agar (SDA). Briefly, room temperature incubation was performed and dermatophyte inhibition assessed by measuring the colony diameter at each disc for 7 days. The results are shown in Table 3 and were determined as the average of three different experiments.

dermatophytes [3] = test system: dermatophytes; design: method as in PMID 32967192; conditions: cited from earlier work

Compound	IC50 (HeLa cells) [µM]	IC50 (CEM cells) [µM]	IC50 (Mia-Paca2 cells) [µM]	MIC [1] [µg/mL]	activity against Candida albicans [1]	inhibition at 100 µg/mL (dermatophytes [2]) [%]	IC50 towards the tested dermatophytes (dermatophytes [3])
c1c[nH]c(-c2nc3ccccc3s2)c1 [Compound 8a, 2-(1H-Pyrrol-2-Yl)benzothiazole]	65 ± 2	> 100	87 ± 18				
c1coc(-c2nc3ccccc3s2)c1 [Compound 9a, 2-(Furan-2-Yl)benzothiazole]	> 100	41 ± 5	> 100	32 (≈ 159 µM)	showed activity against Candida albicans after 24 h	50 to 75	
c1csc(-c2nc3ccccc3s2)c1 [Compound 10a, 2-(Thiophen-2-Yl)benzothiazole]	> 100	45 ± 3	> 100	64 (≈ 294 µM)	showed activity against Candida albicans after 24 h	50 to 75	
NS(=O)(=O)c1ccc2nc(-c3cccs3)sc2c1 [Compound 10c, 2-(Thiophen-2-Yl)benzothiazole-6-Sulfonamide]	> 100	> 100	13 ± 3				
c1c[nH]c(-c2nc3ccccc3[nH]2)c1 [Lead 10, reference compound]	37	14 ± 1	15 ± 9				lower than 2 µg/mL
